Counter-ions that a name gives are not always drawn.
What was measured:
[1] = target: T1, HCV polymerase (NS5B) type 1a (Hepatitis C virus genotype 1a, UniProt P26664); experiment: Assay of enzyme (HCV polymerase) inhibitory activity, type 1a enzyme; assay type: biochemical, HCV type 1a (cloned from the blood of patients); conditions: HCV polymerase inhibitory activity (IC50), 1a, type 1a enzyme 1.5 μg/ml, 25° C., 60 min
T1 construct: made in house; host or cells: Escherichia coli (by the 'similar method' of the 1b enzyme)
Procedure, shortened: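 Patient-derived type 1a NS5B (C-terminal 47-aa deletion, His-tagged, E. coli-expressed) at 1.5 μg/ml was reacted with 5 μg/ml 3′UTR-containing substrate RNA, 50 μM ATP/GTP/CTP, 2 μM UTP plus [3H]UTP, pH 7.5, 25° C for 60 min. TCA-precipitated RNA radioactivity was counted; IC50 from ± compound.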

[2] = target: T2, HCV polymerase (NS5B) type 1b (Hepatitis C virus genotype 1b, UniProt P26663); experiment: Assay of enzyme (HCV polymerase) inhibitory activity, type 1b enzyme; assay type: biochemical, HCV BK strain (type 1b); conditions: HCV polymerase inhibitory activity (IC50), 1b, type 1b enzyme 0.5 μg/ml, 25° C., 60 min
T2 construct: a region encoding NS5B (J Virol 1991 March, 65(3), 1105-13, 544 amino acids after deletion of 47 amino acids on the C-terminal); 6xHis (C); made in house; host or cells: Escherichia coli
Procedure, shortened: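 NS5B from HCV BK strain (type 1b), C-terminal 47 aa deleted, C-terminal His6-tagged, E. coli-expressed, 0.5 μg/ml, with ~450 nt substrate RNA carrying the 3′ UTR (polyU, 3′X) at 5 μg/ml. Incubation 60 min at 25 °C with 50 μM ATP/GTP/CTP, 2 μM UTP plus [3H]UTP, pH 7.5 Tris.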

Structure (SMILES): CCCc1ccc(S(=O)(=O)N2CCN(c3nc(C)c(C(=O)OC(C)(C)C)s3)C[C@@H]2C(=O)NCc2ccc(C(C)C)cc2)cc1 [Example 319, 2-[(R)-3-(4-isopropyl-benzylcarbamoyl)-4-(4-propyl-benzenesulfonyl)-piperazin-1-yl]-4-methyl-thiazole-5-carboxylic acid tert-butyl ester]
- IC50 [1]: > 1000 nM
- IC50 [2]: 100 to 1000 nM

Structure (SMILES): Cc1nc(N2CCN(S(=O)(=O)c3ccc(OC(F)(F)F)cc3)[C@@H](C(=O)NCc3ccc(C(C)C)cc3)C2)sc1C(=O)OC(C)(C)C [Example 320, 2-[(R)-3-(4-isopropyl-benzylcarbamoyl)-4-(4-trifluoromethoxy-benzenesulfonyl)-piperazin-1-yl]-4-methyl-thiazole-5-carboxylic acid tert-butyl ester]
- IC50 [1]: > 1000 nM
- IC50 [2]: > 1000 nM

Structure (SMILES): CCc1ccc(CNC(=O)[C@H]2CN(C(C)=O)CCN2S(=O)(=O)c2ccc(C(C)C)cc2)c(C)c1 [Example 321, (R)-4-acetyl-1-(4-isopropyl-benzenesulfonyl)-piperazine-2-carboxylic acid 4-ethyl-2-methyl-benzylamide]
- IC50 [1]: < 100 nM
- IC50 [2]: < 100 nM

Structure (SMILES): Cc1nc(N2CCN(S(=O)(=O)c3ccc(OC(F)(F)F)cc3)[C@@H](C(=O)NCc3ccc(C(C)C)cc3)C2)sc1C(=O)O [Example 322, 2-[(R)-3-(4-isopropyl-benzylcarbamoyl)-4-(4-trifluoromethoxy-benzenesulfonyl)-piperazin-1-yl]-4-methyl-thiazole-5-carboxylic acid]
- IC50 [1]: < 100 nM
- IC50 [2]: < 100 nM

Structure (SMILES): CC(=O)N1CCN(S(=O)(=O)c2ccc(C(C)C)cc2)[C@@H](C(=O)NCc2ccc(C3CC3)cc2C)C1 [Example 323, (R)-4-acetyl-1-(4-isopropyl-benzenesulfonyl)-piperazine-2-carboxylic acid 4-cyclopropyl-2-methyl-benzylamide]
- IC50 [1]: < 100 nM
- IC50 [2]: < 100 nM

Structure (SMILES): CC(=O)N1CCN(S(=O)(=O)c2ccc(OC(F)(F)F)c(CCC(=O)O)c2)[C@@H](C(=O)NCc2ccc(C(C)C)cc2)C1 [Example 324, 3-{5-[(R)-4-acetyl-2-(4-isopropyl-benzylcarbamoyl)-piperazine-1-sulfonyl]-2-trifluoromethoxy-phenyl}-propionic acid]
- IC50 [1]: < 100 nM
- IC50 [2]: 100 to 1000 nM

Structure (SMILES): CCOC(=O)c1cnc(N2CCN(S(=O)(=O)c3ccc(C(F)(F)F)cc3)[C@@H](C(=O)NCc3ccc(C(C)C)cc3)C2)nc1O [Example 325, 4-hydroxy-2-[(R)-3-(4-isopropyl-benzylcarbamoyl)-4-(4-trifluoromethyl-benzenesulfonyl)-piperazin-1-yl]-pyrimidine-5-carboxylic acid ethyl ester]
- IC50 [1]: > 1000 nM
- IC50 [2]: 100 to 1000 nM

Structure (SMILES): CC(C)c1ccc(CNC(=O)[C@H]2CN(c3ccc(C(=O)OC(C)(C)C)cn3)CCN2S(=O)(=O)c2ccc(C(F)(F)F)cc2)cc1 [Example 326, 6-[(R)-3-(4-isopropyl-benzylcarbamoyl)-4-(4-trifluoromethyl-benzenesulfonyl)-piperazin-1-yl]-nicotinic acid tert-butyl ester]
- IC50 [1]: 100 to 1000 nM
- IC50 [2]: 100 to 1000 nM

Structure (SMILES): CC(C)c1ccc(CNC(=O)[C@H]2CN(c3ccc(C(=O)O)cn3)CCN2S(=O)(=O)c2ccc(C(F)(F)F)cc2)cc1 [Example 327, 6-[(R)-3-(4-isopropyl-benzylcarbamoyl)-4-(4-trifluoromethyl-benzenesulfonyl)-piperazin-1-yl]-nicotinic acid trifluoroacetate]
- IC50 [1]: < 100 nM
- IC50 [2]: < 100 nM

Structure (SMILES): CC(C)c1ccc(CNC(=O)[C@H]2CN(c3ncc(C(=O)O)s3)CCN2S(=O)(=O)c2ccc(OC(F)(F)F)cc2)cc1 [Example 328, 2-[(R)-3-(4-isopropyl-benzylcarbamoyl)-4-(4-trifluoromethoxy-benzenesulfonyl)-piperazin-1-yl]-thiazole-5-carboxylic acid]
- IC50 [1]: < 100 nM
- IC50 [2]: < 100 nM

— patent US8017612B2, “Piperazine compound and use thereof as a HCV polymerase inhibitor” (priority 2006, dated 2011)
